Assay results reported in ChEMBL document CHEMBL4507300 (2021).

Tests used:
[1] = molecular target: Cyclin-dependent kinase 8 (Homo sapiens) (UniProt P49336); settings: Compound concentration 1000.0 nM
[2] = molecular target: Calcium/calmodulin-dependent protein kinase type II subunit gamma (Homo sapiens) (UniProt Q13555); settings: Compound concentration 1000.0 nM
[3] = molecular target: Serine/threonine-protein kinase PknB (Mycobacterium tuberculosis) (UniProt P9WI81); settings: Compound concentration 1000.0 nM
[4] = molecular target: Mitogen-activated protein kinase 1 (Homo sapiens) (UniProt P28482); settings: Compound concentration 1000.0 nM
[5] = molecular target: Ankyrin repeat and protein kinase domain-containing protein 1 (Homo sapiens) (UniProt Q8NFD2); settings: Compound concentration 1000.0 nM
[6] = test system: Receptor-type tyrosine-protein kinase FLT3 (Homo sapiens), P36888 [D835Y]; settings: Compound concentration 1000.0 nM
[7] = molecular target: 3-phosphoinositide-dependent protein kinase 1 (Homo sapiens) (UniProt O15530); settings: Compound concentration 1000.0 nM
[8] = test system: Phosphatidylinositol 4,5-bisphosphate 3-kinase catalytic subunit alpha isoform (Homo sapiens), P42336 [E545A]; settings: Compound concentration 1000.0 nM
[9] = test system: Mast/stem cell growth factor receptor Kit (Homo sapiens), P10721 [D816V]; settings: Compound concentration 1000.0 nM
[10] = molecular target: MAP/microtubule affinity-regulating kinase 3 (Homo sapiens) (UniProt P27448); settings: Compound concentration 1000.0 nM
[11] = molecular target: Serine/threonine-protein kinase 26 (Homo sapiens) (UniProt Q9P289); settings: Compound concentration 1000.0 nM
[12] = molecular target: NT-3 growth factor receptor (Homo sapiens) (UniProt Q16288); settings: Compound concentration 1000.0 nM
[13] = molecular target: Serine/threonine-protein kinase Nek7 (Homo sapiens) (UniProt Q8TDX7); settings: Compound concentration 1000.0 nM
[14] = molecular target: NUAK family SNF1-like kinase 2 (Homo sapiens) (UniProt Q9H093); settings: Compound concentration 1000.0 nM
[15] = test system: Hepatocyte growth factor receptor (Homo sapiens), P08581 [M1250T]; settings: Compound concentration 1000.0 nM
[16] = molecular target: Mitogen-activated protein kinase kinase kinase 20 (Homo sapiens) (UniProt Q9NYL2); settings: Compound concentration 1000.0 nM
[17] = molecular target: Insulin receptor-related protein (Homo sapiens) (UniProt P14616); settings: Compound concentration 1000.0 nM
[18] = molecular target: Serine/threonine-protein kinase 38-like (Homo sapiens) (UniProt Q9Y2H1); settings: Compound concentration 1000.0 nM
[19] = molecular target: Serine/threonine-protein kinase PAK 4 (Homo sapiens) (UniProt O96013); settings: Compound concentration 1000.0 nM
[20] = molecular target: MAP kinase-activated protein kinase 2 (Homo sapiens) (UniProt P49137); settings: Compound concentration 1000.0 nM
[21] = molecular target: Mitogen-activated protein kinase 13 (Homo sapiens) (UniProt O15264); settings: Compound concentration 1000.0 nM
[22] = molecular target: Homeodomain-interacting protein kinase 3 (Homo sapiens) (UniProt Q9H422); settings: Compound concentration 1000.0 nM
[23] = molecular target: Tyrosine-protein kinase CSK (Homo sapiens) (UniProt P41240); settings: Compound concentration 1000.0 nM
[24] = test system: Proto-oncogene tyrosine-protein kinase receptor Ret (Homo sapiens), P07949 [M918T]; settings: Compound concentration 1000.0 nM
[25] = test system: Receptor-type tyrosine-protein kinase FLT3 (Homo sapiens), P36888 [UNDEFINED MUTATION]; settings: Compound concentration 1000.0 nM
[26] = test system: Tyrosine-protein kinase ABL1 (Homo sapiens), P00519 [Q252H]; settings: Compound concentration 1000.0 nM
[27] = molecular target: Glycogen synthase kinase-3 alpha (Homo sapiens) (UniProt P49840); settings: Compound concentration 1000.0 nM
[28] = molecular target: Mitogen-activated protein kinase kinase kinase kinase 3 (Homo sapiens) (UniProt Q8IVH8); settings: Compound concentration 1000.0 nM
[29] = molecular target: Sodium-dependent noradrenaline transporter (Homo sapiens) (UniProt P23975); settings: Compound concentration 10.0 uM
[30] = molecular target: Mitogen-activated protein kinase kinase kinase 11 (Homo sapiens) (UniProt Q16584); settings: Compound concentration 1000.0 nM
[31] = test system: Tyrosine-protein kinase ABL1 (Homo sapiens), P00519 [H396P]; settings: Compound concentration 1000.0 nM
[32] = molecular target: Serine/threonine-protein kinase MRCK beta (Homo sapiens) (UniProt Q9Y5S2); settings: Compound concentration 1000.0 nM
[33] = molecular target: Macrophage-stimulating protein receptor (Homo sapiens) (UniProt Q04912); settings: Compound concentration 1000.0 nM
[34] = molecular target: Muscarinic acetylcholine receptor M1 (Homo sapiens) (UniProt P11229); settings: Compound concentration 10.0 uM
[35] = molecular target: Serine/threonine-protein kinase Sgk1 (Homo sapiens) (UniProt O00141); settings: Compound concentration 1000.0 nM
[36] = molecular target: ALK tyrosine kinase receptor (Homo sapiens) (UniProt Q9UM73); settings: Compound concentration 1000.0 nM
[37] = molecular target: Mitogen-activated protein kinase kinase kinase kinase 1 (Homo sapiens) (UniProt Q92918); settings: Compound concentration 1000.0 nM
[38] = molecular target: Serine/threonine-protein kinase MRCK gamma (Homo sapiens) (UniProt Q6DT37); settings: Compound concentration 1000.0 nM
[39] = molecular target: RAC-beta serine/threonine-protein kinase (Homo sapiens) (UniProt P31751); settings: Compound concentration 1000.0 nM
[40] = molecular target: Tyrosine-protein kinase JAK3 (Homo sapiens) (UniProt P52333); settings: Compound concentration 1000.0 nM
[41] = molecular target: Interferon-induced, double-stranded RNA-activated protein kinase (Homo sapiens) (UniProt P19525); settings: Compound concentration 1000.0 nM
[42] = molecular target: Mitogen-activated protein kinase kinase kinase 15 (Homo sapiens) (UniProt Q6ZN16); settings: Compound concentration 1000.0 nM
[43] = molecular target: 5-hydroxytryptamine receptor 2C (Homo sapiens) (UniProt P28335); settings: Compound concentration 10.0 uM
[44] = molecular target: Homeodomain-interacting protein kinase 2 (Homo sapiens) (UniProt Q9H2X6); settings: Compound concentration 1000.0 nM
[45] = molecular target: Myosin-IIIa (Homo sapiens) (UniProt Q8NEV4); settings: Compound concentration 1000.0 nM

Homeodomain-interacting protein kinase 3 (Homo sapiens), sequence (Q9H422 whole entry, looked up): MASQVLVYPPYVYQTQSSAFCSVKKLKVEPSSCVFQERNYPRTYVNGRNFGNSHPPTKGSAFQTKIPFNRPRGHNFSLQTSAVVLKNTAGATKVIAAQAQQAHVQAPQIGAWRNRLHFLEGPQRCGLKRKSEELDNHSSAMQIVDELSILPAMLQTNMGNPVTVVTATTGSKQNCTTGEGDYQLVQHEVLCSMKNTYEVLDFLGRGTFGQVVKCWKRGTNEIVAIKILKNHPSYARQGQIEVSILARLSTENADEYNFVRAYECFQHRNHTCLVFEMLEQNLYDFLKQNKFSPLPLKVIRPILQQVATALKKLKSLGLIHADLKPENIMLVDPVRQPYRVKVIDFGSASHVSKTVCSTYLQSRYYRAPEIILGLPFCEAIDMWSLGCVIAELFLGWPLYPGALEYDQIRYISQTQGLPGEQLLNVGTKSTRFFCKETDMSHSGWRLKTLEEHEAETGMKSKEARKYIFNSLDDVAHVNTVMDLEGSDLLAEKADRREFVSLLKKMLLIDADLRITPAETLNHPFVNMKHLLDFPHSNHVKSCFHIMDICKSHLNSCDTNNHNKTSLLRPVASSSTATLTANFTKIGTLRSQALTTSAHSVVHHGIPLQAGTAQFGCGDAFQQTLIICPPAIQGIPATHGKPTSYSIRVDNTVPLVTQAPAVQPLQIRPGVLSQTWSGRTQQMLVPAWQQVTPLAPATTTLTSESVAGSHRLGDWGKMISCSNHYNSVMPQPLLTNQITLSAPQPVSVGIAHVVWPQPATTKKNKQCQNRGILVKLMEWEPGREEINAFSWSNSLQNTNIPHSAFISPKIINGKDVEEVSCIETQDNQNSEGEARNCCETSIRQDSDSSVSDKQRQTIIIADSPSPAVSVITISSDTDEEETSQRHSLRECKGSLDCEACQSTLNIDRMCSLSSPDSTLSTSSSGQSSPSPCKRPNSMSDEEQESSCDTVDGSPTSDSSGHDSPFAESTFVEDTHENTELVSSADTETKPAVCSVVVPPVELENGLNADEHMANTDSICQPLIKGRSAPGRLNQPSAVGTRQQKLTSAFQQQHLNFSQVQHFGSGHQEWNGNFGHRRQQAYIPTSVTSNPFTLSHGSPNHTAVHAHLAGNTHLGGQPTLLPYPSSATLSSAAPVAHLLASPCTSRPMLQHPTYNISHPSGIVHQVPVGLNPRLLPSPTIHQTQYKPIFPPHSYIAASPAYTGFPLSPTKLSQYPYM
Calcium/calmodulin-dependent protein kinase type II subunit gamma (Homo sapiens), sequence (Q13555 whole entry): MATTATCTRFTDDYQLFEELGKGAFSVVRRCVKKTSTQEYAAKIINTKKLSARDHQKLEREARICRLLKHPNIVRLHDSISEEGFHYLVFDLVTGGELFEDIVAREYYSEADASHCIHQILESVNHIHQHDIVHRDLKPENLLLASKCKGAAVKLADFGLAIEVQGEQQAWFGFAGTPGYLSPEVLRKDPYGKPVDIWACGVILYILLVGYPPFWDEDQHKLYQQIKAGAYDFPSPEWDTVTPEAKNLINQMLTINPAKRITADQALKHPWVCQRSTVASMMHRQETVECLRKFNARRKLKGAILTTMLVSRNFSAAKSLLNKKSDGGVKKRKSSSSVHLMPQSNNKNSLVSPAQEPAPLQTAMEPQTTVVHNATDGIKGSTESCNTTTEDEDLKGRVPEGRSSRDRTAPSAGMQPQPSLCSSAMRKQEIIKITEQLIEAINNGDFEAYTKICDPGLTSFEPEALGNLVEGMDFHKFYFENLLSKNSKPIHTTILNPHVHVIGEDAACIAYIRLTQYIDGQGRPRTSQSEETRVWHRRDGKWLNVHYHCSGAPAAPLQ
Serine/threonine-protein kinase Sgk1 (Homo sapiens), sequence (O00141 whole entry): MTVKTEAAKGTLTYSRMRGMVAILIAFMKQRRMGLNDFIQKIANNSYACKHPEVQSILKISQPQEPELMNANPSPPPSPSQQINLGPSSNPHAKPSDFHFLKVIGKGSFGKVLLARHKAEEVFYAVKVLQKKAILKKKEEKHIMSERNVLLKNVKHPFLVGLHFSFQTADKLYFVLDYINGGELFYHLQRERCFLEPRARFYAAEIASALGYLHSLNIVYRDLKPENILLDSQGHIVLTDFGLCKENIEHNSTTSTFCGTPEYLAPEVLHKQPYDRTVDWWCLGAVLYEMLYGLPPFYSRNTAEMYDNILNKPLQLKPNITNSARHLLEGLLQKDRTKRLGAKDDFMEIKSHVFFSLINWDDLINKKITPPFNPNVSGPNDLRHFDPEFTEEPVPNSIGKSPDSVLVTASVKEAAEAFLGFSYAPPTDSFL
Serine/threonine-protein kinase Nek7 (Homo sapiens), sequence (Q8TDX7 whole entry, looked up): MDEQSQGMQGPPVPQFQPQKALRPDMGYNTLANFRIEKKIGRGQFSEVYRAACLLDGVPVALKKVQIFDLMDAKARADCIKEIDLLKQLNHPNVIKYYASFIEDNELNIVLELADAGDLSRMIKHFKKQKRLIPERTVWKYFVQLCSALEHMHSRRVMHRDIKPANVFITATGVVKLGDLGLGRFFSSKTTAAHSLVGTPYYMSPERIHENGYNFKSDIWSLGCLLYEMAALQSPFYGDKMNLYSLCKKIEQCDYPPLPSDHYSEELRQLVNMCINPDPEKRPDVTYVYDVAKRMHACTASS
Homeodomain-interacting protein kinase 2 (Homo sapiens), sequence (Q9H2X6 whole entry, looked up): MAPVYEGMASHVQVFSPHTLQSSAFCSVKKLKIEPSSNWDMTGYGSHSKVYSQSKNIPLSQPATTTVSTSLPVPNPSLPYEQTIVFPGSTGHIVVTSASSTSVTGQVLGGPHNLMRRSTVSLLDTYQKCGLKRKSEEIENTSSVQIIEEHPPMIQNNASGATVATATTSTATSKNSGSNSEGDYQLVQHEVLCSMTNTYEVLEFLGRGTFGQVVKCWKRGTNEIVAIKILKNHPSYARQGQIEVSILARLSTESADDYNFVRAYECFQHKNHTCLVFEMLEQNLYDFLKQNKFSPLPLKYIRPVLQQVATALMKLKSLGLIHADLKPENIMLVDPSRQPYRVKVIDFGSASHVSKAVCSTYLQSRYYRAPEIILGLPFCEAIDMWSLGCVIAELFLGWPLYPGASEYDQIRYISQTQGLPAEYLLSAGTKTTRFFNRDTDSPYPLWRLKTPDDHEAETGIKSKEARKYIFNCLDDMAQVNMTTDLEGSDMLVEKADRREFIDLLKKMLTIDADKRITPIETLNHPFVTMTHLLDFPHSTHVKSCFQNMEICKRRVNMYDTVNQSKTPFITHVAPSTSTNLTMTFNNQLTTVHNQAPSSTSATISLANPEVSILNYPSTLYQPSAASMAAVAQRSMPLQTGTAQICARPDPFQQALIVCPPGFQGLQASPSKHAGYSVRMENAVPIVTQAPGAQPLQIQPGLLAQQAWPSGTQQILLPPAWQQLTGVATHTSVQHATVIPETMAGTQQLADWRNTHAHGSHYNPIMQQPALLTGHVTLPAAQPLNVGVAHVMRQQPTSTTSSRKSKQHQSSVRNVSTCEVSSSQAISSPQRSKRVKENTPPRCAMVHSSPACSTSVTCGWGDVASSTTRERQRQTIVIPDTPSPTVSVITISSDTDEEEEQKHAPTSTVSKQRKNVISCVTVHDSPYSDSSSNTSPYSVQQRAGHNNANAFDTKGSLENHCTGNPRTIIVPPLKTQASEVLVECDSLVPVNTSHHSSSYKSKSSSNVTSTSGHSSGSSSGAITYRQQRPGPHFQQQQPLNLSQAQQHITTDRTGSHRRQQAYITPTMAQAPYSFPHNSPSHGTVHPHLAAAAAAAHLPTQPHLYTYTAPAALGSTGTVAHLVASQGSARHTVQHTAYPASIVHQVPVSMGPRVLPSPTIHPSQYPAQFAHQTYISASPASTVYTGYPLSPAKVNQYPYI
Serine/threonine-protein kinase PAK 4 (Homo sapiens), sequence (O96013 whole entry, looked up): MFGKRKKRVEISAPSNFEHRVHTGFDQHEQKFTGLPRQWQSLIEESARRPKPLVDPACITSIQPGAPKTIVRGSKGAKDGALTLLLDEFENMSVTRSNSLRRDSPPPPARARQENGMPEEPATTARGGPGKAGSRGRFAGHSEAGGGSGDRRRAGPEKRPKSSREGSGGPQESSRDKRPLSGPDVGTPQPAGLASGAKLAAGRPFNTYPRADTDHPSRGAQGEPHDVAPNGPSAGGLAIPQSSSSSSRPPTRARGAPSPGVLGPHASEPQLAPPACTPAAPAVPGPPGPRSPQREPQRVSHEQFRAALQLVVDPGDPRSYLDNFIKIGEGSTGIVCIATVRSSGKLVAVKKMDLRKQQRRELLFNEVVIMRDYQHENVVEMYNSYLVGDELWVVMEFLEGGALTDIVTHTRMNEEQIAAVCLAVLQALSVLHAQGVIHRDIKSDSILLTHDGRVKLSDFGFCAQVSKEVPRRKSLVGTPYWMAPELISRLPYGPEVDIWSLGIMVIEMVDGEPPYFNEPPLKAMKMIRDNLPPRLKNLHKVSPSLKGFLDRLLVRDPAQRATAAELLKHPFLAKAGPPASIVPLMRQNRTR
Mitogen-activated protein kinase 13 (Homo sapiens), sequence (O15264 whole entry): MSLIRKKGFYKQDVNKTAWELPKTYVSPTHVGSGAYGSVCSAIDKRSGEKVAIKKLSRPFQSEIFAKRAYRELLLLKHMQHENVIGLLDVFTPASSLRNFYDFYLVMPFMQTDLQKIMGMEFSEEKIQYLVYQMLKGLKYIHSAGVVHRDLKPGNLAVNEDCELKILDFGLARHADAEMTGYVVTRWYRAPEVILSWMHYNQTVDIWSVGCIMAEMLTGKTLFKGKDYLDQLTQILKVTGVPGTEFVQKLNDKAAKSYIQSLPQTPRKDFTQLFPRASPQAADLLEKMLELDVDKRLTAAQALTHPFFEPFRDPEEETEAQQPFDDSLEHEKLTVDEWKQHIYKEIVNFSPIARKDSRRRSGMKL
Mitogen-activated protein kinase 1 (Homo sapiens), sequence (P28482 whole entry, the tested form may be a part): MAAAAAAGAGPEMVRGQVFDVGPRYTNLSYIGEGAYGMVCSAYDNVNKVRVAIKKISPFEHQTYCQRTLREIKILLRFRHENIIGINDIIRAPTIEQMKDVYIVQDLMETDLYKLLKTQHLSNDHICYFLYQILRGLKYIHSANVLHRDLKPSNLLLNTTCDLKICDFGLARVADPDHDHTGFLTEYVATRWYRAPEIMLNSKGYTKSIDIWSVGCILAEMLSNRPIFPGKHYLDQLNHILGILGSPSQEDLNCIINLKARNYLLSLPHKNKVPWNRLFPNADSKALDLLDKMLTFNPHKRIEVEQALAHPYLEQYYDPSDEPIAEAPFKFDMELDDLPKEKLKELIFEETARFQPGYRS

COc1cccc(CNC(=O)c2nc3scc(COCc4ccc(C(=O)O)cc4)c3c(=O)[nH]2)c1 [T-26c]
residual activity [1]: 73.4% | residual activity [2]: 100% | residual activity [3]: 93% | residual activity [4]: 100% | residual activity [5]: 70.9% | residual activity [6]: 94.3% | residual activity [7]: 87.8% | residual activity [8]: 89.2% | residual activity [9]: 100% | residual activity [10]: 100% | residual activity [11]: 72.2% | residual activity [12]: 76.3% | residual activity [13]: 100% | residual activity [14]: 76.4% | residual activity [15]: 98% | residual activity [16]: 85.5% | residual activity [17]: 100% | residual activity [18]: 87.7% | residual activity [19]: 100% | residual activity [20]: 64.3% | residual activity [21]: 100% | residual activity [22]: 73.7% | residual activity [23]: 100% | residual activity [24]: 89.5% | residual activity [25]: 58.4% | residual activity [26]: 91.4% | residual activity [27]: 100% | residual activity [28]: 99.8% | inhibition [29]: 12.6% | residual activity [30]: 100% | residual activity [31]: 83.6% | residual activity [32]: 99.5% | residual activity [33]: 81.9% | inhibition [34]: 53.4% | residual activity [35]: 93.4% | residual activity [36]: 92% | residual activity [37]: 100% | residual activity [38]: 99.4% | residual activity [39]: 93.3% | residual activity [40]: 78.4% | residual activity [41]: 97.7% | residual activity [42]: 100% | inhibition [43]: 12.5% | residual activity [44]: 72.9% | residual activity [45]: 88%
